According to patent US11020337B2, “Aspartyl-dipeptides for skin care and cosmetic use” (Cysal GmbH, priority 2016, dated 2021):

Experiments:
human skin [1] = test: In-vivo skin elasticity test (cutometer MPA 580, R2-values); conditions: 4 weeks; for improvement in skin elasticity, treated area: twice a day
From the text: (§1) Panelists: The test panel included 5 adult female volunteers with dry skin, elasticity less than average and crow's feet wrinkles next to the eyes. At the beginning of the application test all subjects have been checked by a dermatologist. Only subjects were allowed to join the trial with no pathological skin modifications diagnosed. During the application test all subjects had in case of acute skin irritations access to daily consultations from an attending medical specialist who was accompanying the test. Daily consultations about the skin conditions through the test-accompanying medical doctor were possible.
(§2) Experimental application of test-products: Test areas were around 3 cm in diameter. The test products were applied on the volar forearm (5% and 10% aqueous solutions; skin elasticity and hydration tests) as well as the crows's feet wrinkles (5% aqueous solution). The application of the preparations have been done twice a day during the whole test period (4 weeks). The subjects have been instructed not to use other care products in this test area. Untreated skin areas were used as control.
Elasticity test: The test was performed with the cutometer MPA 580 Fa. Courage+Khazaka electronics GmbH. The principle of measurement is based on the suction/elongation principle. To obtain start conditions the instrument was adjusted for 450 mbar low pressure. The suction time was defined to 5 secs. The relaxation time (abrupt loss of low pressure) was fixed to 3 secs. All measurements have been repeated three times for each test and control areas. Afterwards a mean for R2-values obtained from three independent measurements per area has been calculated. To perform measurements the instrument was adjusted for the named parameters before the test was started. All parameter adjustments described in literature as mainly used and reliable remained unchanged during the measurements. The cutometry has been performed at the beginning and at the end of the application period. R2-values have been measured and analyzed for each subject.

crow's feet wrinkles = test: In-vivo single wrinkle depth (PRIMOS optical 3D measurement); set-up: species or system human; conditions: 5% aqueous solution, four weeks, 5 subjects
From the text: as §1
Experimental application of test-products: Test areas were around 3 cm in diameter. […]
Single wrinkles depth: Optical 3D measurement using a PRIMOS (Phaseshift Rapid In vivo Measurement Of Skin) compact portable system was used for this measurement. PRIMOS comact portable was applied on an area of 40×30 mm and digital fotos of the measured area were made. […] Finally, the measurement data generated were processed and then evaluated. […] With the PRIMOS software the changes in structure of the epidermis can be classified quantitatively with the aid of various standardized surface measurement parameters in accordance with DIN (Deutsche Industrie Norm, German industrial standards) and ISO (International Standards Organisation). […] The skinfold depth can be measured by determining the distances. […]

human skin [2] = test: In-vivo skin moisture (Corneometer CM 825); conditions: 4 weeks; for improvement in skin moisture, treated area: twice a day
From the text: as §1, §2
Skin moisture: this aspect was tested using the Corneometer CM 825 (Firma Courage+Khazaka). The test products were applied twice a day on the relevant pre-determined skin areas during the application period. The test persons were acclimatized for 45 minutes at a temperature of 22 degrees centigrade and 60% relative humidity before every measurement, then, the skin measurement values were measured at three different places within the respective testing areas. The recorded values were averaged. Untreated skin close to the test area was used as the control measurement area. Measurements were taken before the application and after four weeks of application. All measurements were performed at least 10-12 hours after the last application of the formerly used product resp. the test product.

[3] = system: basal keratinocytes of 3D-Epidermal skin models; test: Click-iT EdU proliferation rate of basal keratinocytes; format: cell-based, human; conditions: topical, 30 μl of 5% aqueous solution
Protocol: (§3) Experimental application of test-products: In this study 30 μl of a 5% aqueous solution of the test substances were applied as follows using a calibrated pipette:
Proliferation testing of basal Keratinocytes (Example 2): topically with air exposed models as reference and analysis time points for proliferation rate after 3 and 6 days.
(§4) Application was done in duplicates (2 models) at all time points and models were cultured and analyzed in parallel under identical conditions.
EpiDerm 3D-Epidermal skin models: Nowadays in vitro test procedures are a very good alternative to animal experiments and become increasingly important for the cosmetic industry. For cosmetic products which are used over a longer period, dermatological tests for harmlessness are an essential prerequisite for a high application safety and customer satisfaction. During the development of new cosmetic products biological effects of particular active ingredients or complete formulations turn into focus of cosmetic interests. The human EpiDerm skin model is an in vitro reconstructed multilayered epithelial tissue which is cultured of normal human keratinocytes. […] The model is mitotically as well as metabolically active and expresses typical differentiation marker like pro-fillagrin 1 and cytokeratin 1/10. […]
Evaluation of the proliferation rate: Out of every used skin model, 6 mm punch biopsies were taken, embedded in O.C.T.™, cryoconserved in the gaseous phase of liquid nitrogen and subsequently cut into 5-6 μm sections. Nuclei from every section were counted (blue fluorescence, DAPI) and the percentage of proliferating nuclei (red fluorescence) was determined.
Fluorescence microscopy: Click-iT®-EdU tagged cells were stained in red (λex 594 nm). […] Click-iT®-EdU and DAPI stained cells were recorded solely and merged subsequently. The fluorescence analysis and documentation was performed with the ZEISS, Axio Scope A1HAL 100. […]

[4] = system: EpiDerm 3D-Epidermal skin models (normal human keratinocytes); test: MTT-Vitality-Assay, in-vitro epidermal vitality/viability; format: cell-based; conditions: 30 μl of 5% aqueous solution once a day
Protocol: as §3, §4
EpiDerm 3D-Epidermal skin models: Nowadays in vitro test procedures are a very good alternative to animal experiments and become increasingly important for the cosmetic industry. For cosmetic products which are used over a longer period, dermatological tests for harmlessness are an essential prerequisite for a high application safety and customer satisfaction. During the development of new cosmetic products biological effects of particular active ingredients or complete formulations turn into focus of cosmetic interests. The human EpiDerm skin model is an in vitro reconstructed multilayered epithelial tissue which is cultured of normal human keratinocytes. […] The model is mitotically as well as metabolically active and expresses typical differentiation marker like pro-fillagrin 1 and cytokeratin 1/10.
This term summarizes all metabolic activities which cells need for their basic requirements as well as for growth and proliferation. An established method to measure vitality of cells and tissues is the MTT-Vitality-Assay. […] The formazan crystals precipitate into the cellular cytosol, whereby the amount of precipitate correlates quantitatively with the general cellular vitality. Therefore the MTT-Assay can be considered as an indicator for the vitality or “Fitness” of a tissue, because cellular processes like respiration and energy extraction lead to the reduction of MTT.
Aim of this experiment was to examine the potential of the test substances to vitalize the tissue. For this purpose 3D-Epidermis skin models were used. […] After incubation period the bottom of model jars were dabbed with a sterile wipe to remove excessive medium/MTT mix. Models were transferred to a new sterile 24 well plate and 2 ml isopropyl was added subsequently. To avoid evaporation, plates were sealed with parafilm, covered with tinfoil and incubated 2 h on a shaker to extract formazan crystals. Optical density of released crystals of all extracts was determined at 570 nm. Measured values were analyzed and assessed. […] The vitality was derived from averages of determined ODs whereby the water treated, optimal cultured control was set as 100% vitality [vitality: 100*(ODtest substance/ODcontrol)].

[5] = crow's feet area, 5% aqueous solution
[6] = volar forearm, 5% aqueous solution
[7] = crow's feet (next to the eye), 5% aqueous solution
[8] = crow's feet (next to the eyes), 5% aqueous solution
[9] = 3 days incubation, air exposed models 11.21%
[10] = volar forearm, 10% aqueous solution

| SMILES | average improvement in skin elasticity after control area deduction (human skin [1]; [5]) [%] | improvement in skin elasticity, treated area (human skin [1]; crow's feet, 5% aqueous solution) [%] | average improvement in skin elasticity after control area deduction (human skin [1]; forearm, 5% aqueous solution) [%] | improvement in skin elasticity, treated area (human skin [1]; [6]) | average improvement in the wrinkle depth (crow's feet wrinkles) [%] | improvement in skin moisture, treated area (human skin [2]; [7]) | average improvement in skin moisture after control area deduction (human skin [2]; [8]) [%] | average improvement in skin moisture after control area deduction (human skin [2]; [6]) [%] | improvement in skin moisture, treated area (human skin [2]; [6]) | percentage of proliferative cells (nuclei) [3, 9] [%] | percentage of proliferative cells (nuclei) ([3]; 6 days incubation, air exposed models 17.11%) [%] | average improvement in skin elasticity after control area deduction (human skin [1]; forearm, 10% aqueous solution) [%] | improvement in skin elasticity, treated area (human skin [1]; [10]) [%] | average improvement in skin moisture after control area deduction (human skin [2]; [10]) [%] | improvement in skin moisture, treated area (human skin [2]; [10]) [%] | vitality (MTT, water treated control = 100%) ([4]; 48 h systematical (systemic) incubation, FIG. 1) [%] | vitality (MTT, water treated control = 100%) ([4]; 48 h topical application, FIG. 2) [%] | vitality (MTT, water treated control = 100%) ([4]; 120 h systemical incubation, FIG. 3) [%] | vitality (MTT, water treated control = 100%) ([4]; 120 h topical application, FIG. 4) [%] |
| --- | --- | --- | --- | --- | --- | --- | --- | --- | --- | --- | --- | --- | --- | --- | --- | --- | --- | --- | --- |
| NCCCC[C@H](NC(=O)C[C@H](N)C(=O)O)C(=O)O [β-L-aspartyl-L-lysine] | 11.21 | 11.06 | 6.18 | about 6.03% | 20.02 | about 16.10% | 15.79 | 1.74 | about 2.05% | 16.33 | 22.12 | – | – | – | – | – | – | – | – |
| N=C(N)NCCC[C@H](NC(=O)C[C@H](N)C(=O)O)C(=O)O [β-L-aspartyl-L-arginine] | 8.08 | – | 9.26 | about 9.11% | 16.4 | about 1.873% | 1.56 | 0.82 | about 1.126% | 30.98 | – | 8.85 | ~8.70 | 0.56 | ~0.871 | 127.23 | 112.36 | 118.16 | 120.61 |
